In patent US11674123B2, “Generating arterial endothelial cell populations” (Wisconsin Alumni Research Foundation, priority 2015, dated 2023):
Entries after “also recorded” stand apart in the source; their conditions may differ.

B1: PDGF-BB: platelet derived growth factor BB (protein, UniProt P01127 82-190, looked up)
Platelet-derived growth …: SLGSLTIAEPAMIAECKTRTEVFEISRRLIDRTNANFLVWPPCVEVQRCSGCCNNRNVQCRPTQVQLRPVQVRKIEIVRKKPIFKKATVTLEDHLACKCETVAAARPVT
modifications: homodimer
B2: WNT3A: recombinant protein, Wnt signaling factor added to medium (protein, UniProt P56704 19-352, looked up)
Protein Wnt-3a: SYPIWWSLAVGPQYSSLGSQPILCASIPGLVPKQLRFCRNYVEIMPSVAEGIKIGIQECQHQFRGRRWNCTTVHDSLAIFGPVLDKATRESAFVHAIASAGVAFAVTRSCAEGTAAICGCSSRHQGSPGKGWKWGGCSEDIEFGGMVSREFADARENRPDARSAMNRHNNEAGRQAIASHMHLKCKCHGLSGSCEVKTCWWSQPDFRAIGDFLKDKYDSASEMVVEKHRESRGWVETLRPRYTYFKVPTERDLVYYEASPNFCEPNPETGSFGTRDRTCNVSSHGIDGCDLLCCGRGHNARAERRREKCRCVFHWCCYVSCQECTRVYDVHTCK

Assays:
Type in all cases: cell-based, human
[1] = tested on: CXCR4+CD144+ and DLL4+CD144+ arterial endothelial cells; assay: Flow cytometry of CXCR4/CD144 and DLL4/CD144 on differentiated endothelial cells; details: FIGS. 4C-4F; for CXCR4 and DLL4 (CD144+CXCR4+ and CD144+DLL4+ cells), factor removed from five factors medium: individual removal
Excerpt: FIGS. 4A-4H present flow cytometric analysis of expression of EphrinB2 and Ephrin Type B Receptor 4 reporter constructs (EFNB2-tdTomato and EPHB4-EGFP) on CD31- and CD144-gated endothelial cells obtained after differentiation in various medium, as described. FIG. 4B illustrates the percentage of arterial endothelial cells (AEC) (EFNB2-tdTomato^high/EPHB4-EGFP^low) obtained after differentiation in the various medium conditions of FIG. 4A. Data are represented as mean±SD. […] FIG. 4D illustrates the percentage of CXCR4^+CD144^+ arterial endothelial cells obtained after differentiation in the various medium conditions of FIG. 4C. […] FIG. 4F illustrates the percentage of DLL4^+CD144^+ arterial endothelial cells obtained after differentiation in the various medium conditions of FIG. 4E. 5 μM L-690,330 (a bisphosphonate inhibitor of inositol monophosphatase), and 100 ng/ml PDGF-BB (platelet derived growth factor BB) were used. […] Arterial endothelial cell differentiation and expansion: It took six days for AECs differentiation. From day 0 to day 2, human ES/iPS cells were first differentiated into mesoderm cells as mentioned above. From day 2 to day 6, E5 medium was used and growth factors or small molecules were added as indicated. With the combination of “five factors,” AECs were induced by E5 medium supplemented with 100 ng/ml FGF, 50 ng/ml VEGF, 10 μM SB431542, 5 μM RESV, and 10 μM […] from day 2 to day 6.

[2] = tested on: EFNB2-tdTomato/EPHB4-EGFP dual reporter cells (H1 ES cells); assay: Arterial endothelial differentiation of EFNB2-tdTomato/EPHB4-EGFP dual reporter cells, flow cytometry; details: for arterial endothelial cell differentiation (EFNB2-tdTomato high/EPHB4-EGFP low cells), factor added: added day 2 to day 6 to E5 + 50 ng/ml VEGFA + 10 μM SB431542, 5 μM L690, 5 μg/ml LDL, 100 ng/ml PDGF-BB, FIGS. 3E-3F; for EFNB2-tdTomato high/EPHB4-EGFP low cells, factor removed from five factors medium: individual removal, FIGS. 4A-4B; for arterial endothelial differentiation of human pluripotent stem cells (conclusion after FACS sorting and RT-qPCR): summary statement; for arterial specification (EFNB2-tdTomato and EPHB4-EGFP expression), factor added singly: added to Control medium (E5+100 ng/ml FGF2+10 μM SB431542): 50 ng/ml VEGF, 5 μM RESV or 50 ng/ml WNT3A, FIG. 11; for arterial differentiation (EFNB2-tdTomato high/EPHB4-EGFP low cells), factor removed: factor removed from the medium after mesoderm formation, day 2 to day 6, FIGS. 3A-3F; for EFNB2-tdTomato high/EPHB4-EGFP low cells / arterial differentiation, factor added to five factors medium: 100 ng/ml PDGF-BB or exogenous WNT3A, FIGS. 4A-4F, FIG. 9
Procedure: (A) Flow cytometric analysis of EFNB2-tdTomato and EPHB4-EGFP expression on CD31 and CD144 gated endothelial cells. EFNB2-tdTomato/EPHB4-EGFP dual reporter cells (hetero knock-in in H1 cells for each gene) were first differentiated into mesoderm cells by E8BAC medium (E8 medium supplemented with BMP4, Activin-A, and CHIR99021). E5 (E8 medium minus FGF2, TGFβ1, and insulin) medium supplemented with 100 ng/ml FGF2, 50 ng/ml VEGFA, and 50 ng/ml BMP4 was used to induce mesoderm cells to differentiate into endothelial cells from day 2 to day 6. Either Insulin (20 μg/ml) or Ly294002 (16 μM, a PI3K inhibitor) was added to the medium as indicated from day 2 to day 6. (B) Statistics of EFNB2-tdTommato^high/EPHB4-EGFP^low cells. […] (C) Western blots showing AKT activity. Protein was harvested at day 3. (D) Flow cytometric analysis of EFNB2-tdTomato and EPHB4-EGFP expression on CD31 and CD144 gated endothelial cells. E5 medium supplemented with 50 ng/ml VEGFA, 50 ng/ml BMP4 or 10 μM SB431542 was used to induce mesoderm cells to differentiate into endothelial cells from day 2 to day 6. (E) Flow cytometric analysis of EFNB2-tdTomato and EPHB4-EGFP expression on CD31 and CD144 gated endothelial cells. ES cells were first differentiated into mesoderm cells as mentioned above. E5 medium supplemented with 50 ng/ml VEGFA and 10 μM SB431542 was used as the base medium induce mesoderm cells to differentiate into endothelial cells from day 2 to day 6. Other factors were added to the base medium as indicated. (F) Statistics of EFNB2-tdTomato^high/EPHB4-EGFP^low cells. […] FIGS. 4A-4H present flow cytometric analysis of expression of EphrinB2 and Ephrin Type B Receptor 4 reporter constructs (EFNB2-tdTomato and EPHB4-EGFP) on CD31- and CD144-gated endothelial cells obtained after differentiation in various medium, as described. FIG. 4B illustrates the percentage of arterial endothelial cells (AEC) (EFNB2-tdTomato^high/EPHB4-EGFP^low) obtained after differentiation in the various medium conditions of FIG. 4A. Data are represented as mean±SD. […] FIG. 4D illustrates the percentage of CXCR4^+CD144^+ arterial endothelial cells obtained after differentiation in the various medium conditions of FIG. 4C. […] FIG. 4F illustrates the percentage of DLL4^+CD144^+ arterial endothelial cells obtained after differentiation in the various medium conditions of FIG. 4E. 5 μM L-690,330 (a bisphosphonate inhibitor of inositol monophosphatase), and 100 ng/ml PDGF-BB (platelet derived growth factor BB) were used. […] FIGS. 11A-11C present arterial endothelial cell differentiation data. (A) Schematic of arterial endothelial cell differentiation protocol. ES cells were first differentiated into mesoderm cells by E8BAC medium (E8 medium supplemented with 5 ng/ml BMP4, 25 ng/ml Activin A, and 1 μM CHIR99021). E5 (E8 medium minus FGF2, TGFβ1, and insulin) medium supplemented with 100 ng/ml FGF2 and 10 μM SB431542 was then used to induce mesoderm cells to differentiate into endothelial cells. (B) Flow cytometric analysis of CD31 and CD34 expression. E5+100 ng/ml FGF2+10 μM SB431542 medium (“Control”) supplemented with 50 ng/ml VEGF, 5 μM RESV (resveratrol, a Notch activator), or 50 ng/ml WNT3A was used to induce mesoderm cells to differentiate into arterial endothelial cells. (C) Flow cytometric analysis of EFNB2-tdTomato and EPHB4-EGFP expression.

AKT = assay: Western blot of AKT activity (pAKT) during differentiation; details: protein harvested at day 3, insulin 20 μg/ml, Ly294002 16 μM, FIG. 3C
Procedure: FIGS. 3A-3F present candidate pathways critical for arteriovenous specification. (A) Flow cytometric analysis of EFNB2-tdTomato and EPHB4-EGFP expression on CD31 and CD144 gated endothelial cells. EFNB2-tdTomato/EPHB4-EGFP dual reporter cells (hetero knock-in in H1 cells for each gene) were first differentiated into mesoderm cells by E8BAC medium (E8 medium supplemented with BMP4, Activin-A, and CHIR99021). E5 (E8 medium minus FGF2, TGFβ1, and insulin) medium supplemented with 100 ng/ml FGF2, 50 ng/ml VEGFA, and 50 ng/ml BMP4 was used to induce mesoderm cells to differentiate into endothelial cells from day 2 to day 6. Either Insulin (20 μg/ml) or Ly294002 (16 μM, a PI3K inhibitor) was added to the medium as indicated from day 2 to day 6. (B) Statistics of EFNB2-tdTommato^high/EPHB4-EGFP^low cells. Data are represented as mean±SD. *: P<0.05, n=5. (C) Western blots showing AKT activity. Protein was harvested at day 3. (D) Flow cytometric analysis of EFNB2-tdTomato and EPHB4-EGFP expression on CD31 and CD144 gated endothelial cells. E5 medium supplemented with 50 ng/ml VEGFA, 50 ng/ml BMP4 or 10 μM SB431542 was used to induce mesoderm cells to differentiate into endothelial cells from day 2 to day 6. (E) Flow cytometric analysis of EFNB2-tdTomato and EPHB4-EGFP expression on CD31 and CD144 gated endothelial cells. ES cells were first differentiated into mesoderm cells as mentioned above. […]

Molecule	CXCR4 and DLL4 (CD144+CXCR4+ and CD144+DLL4+ cells), factor removed from five factors medium [1]	arterial endothelial cell differentiation (EFNB2-tdTomato high/EPHB4-EGFP low cells), factor added [2]	EFNB2-tdTomato high/EPHB4-EGFP low cells, factor removed from five factors medium [2]	arterial endothelial differentiation of human pluripotent stem cells (conclusion after FACS sorting and RT-qPCR) [2]	other results
CC(Oc1ccc(O)cc1)(P(=O)(O)O)P(=O)(O)O [L-690,330, reference compound]	no reduction	increased arterial endothelial cell differentiation	fewer	promote arterial endothelial differentiation	
Oc1ccc(C=Cc2cc(O)cc(O)c2)cc1 [RESV, 3,4′,5-trihydroxystilbene, reference compound]			decrease		arterial specification (EFNB2-tdTomato and EPHB4-EGFP expression), factor added singly [2]: promoted increased arterial specification
NC(=O)c1ccc(-c2nc(-c3ccc4c(c3)OCO4)c(-c3ccccn3)[nH]2)cc1 [SB431542, reference compound]	decreased		decrease		arterial differentiation (EFNB2-tdTomato high/EPHB4-EGFP low cells), factor removed [2]: inhibited arterial differentiation
FGF2: human fibroblast growth factor 2	decreased	increased arterial endothelial cell differentiation	decrease	promote arterial endothelial differentiation	
TGF-β				inhibit arterial endothelial differentiation	
insulin: insulin, medium component, activates AKT				inhibit arterial endothelial differentiation	Phosphorylated AKT (pAKT) (AKT): increased; arterial differentiation (EFNB2-tdTomato high/EPHB4-EGFP low cells), factor removed [2]: triggered AEC differentiation
B1		inhibited arterial differentiation		inhibit arterial endothelial differentiation	CD144+CXCR4+ and CD144+DLL4+ cells, factor added to five factors medium ([1]; 100 ng/ml PDGF-BB): no reduction; EFNB2-tdTomato high/EPHB4-EGFP low cells / arterial differentiation, factor added to five factors medium [2]: fewer
B2					EFNB2-tdTomato high/EPHB4-EGFP low cells / arterial differentiation, factor added to five factors medium [2]: did not further increase arterial differentiation; arterial specification (EFNB2-tdTomato and EPHB4-EGFP expression), factor added singly [2]: promoted increased arterial specification; also recorded: promoted arterial differentiation
